Reference: patent publication US20240293558A1, “KRAS INHIBITOR CONJUGATES” (Erasca, Inc., priority 2021, published 2024)
pIC50: −log10 of the molar value.

What was measured:
KRAS (WT) = biological target: T1, KRAS (WT) (Homo sapiens, UniProt P01116); test: In-vitro RAS-RAF binding assay (RRB), HTRF/FRET; assay type: biochemical; settings: Table 2, average of multiple runs of each compound; read-out: Inhibition of RAS-RAF Binding (in-vitro) KRAS (WT) IC50
T1 construct: Biotinylated KRAS protein amino acids 1-169 (produced at Erasca); made in house
Outline: (§1)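 Biotinylated KRAS 1-169 (streptavidin-terbium donor, 30 nM) and GST-cRAF RBD (anti-GST d2 acceptor, 30 nM) in HEPES pH 7.5, NaCl, MgCl2, DTT buffer. After compound incubation, SOS1 catalytic domain plus GTPgS drive 60 min nucleotide exchange. HTRF FRET read at equilibrium, in duplicate.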

KRAS G12D = KRAS G12D (Homo sapiens, UniProt P01116, G12D); test: In-vitro RAS-RAF binding assay (RRB), HTRF/FRET; assay type: biochemical; design: Biotinylated KRAS protein amino acids 1-169 (produced at Erasca); made in house; settings: Table 2, average of multiple runs of each compound; read-out: Inhibition of RAS-RAF Binding (in-vitro) KRAS (G12D) IC50
Outline: as §1

[1] = biological target: T2, KRas G12D fused to HiBiT peptide (Homo sapiens, UniProt P01116, G12D); test: ASPC-1 HiBit assay to determine G12D degradation; assay type: cell-based; settings: AsPC-1 HiBiT cells, 24-hour incubation; read-out: ASPC-1 HiBit DC50 (C)
T2 construct: endogenous in cells; host or cells: AsPC-1 HiBiT knock-in single clone (Cas9 RNP + ssODN)
Outline: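 Homozygous AsPC-1 clone with N-terminal HiBiT knock-in on endogenous KRas G12D, 24 h compound exposure, top dose 10 μM, 3-fold, 10 points, 1% DMSO. Lytic HiBiT luminescence normalised to DMSO and inhibitor controls gives % degradation; DC50 from 4-parameter fit after hook-effect points removed.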

T2 sequence (P01116 1-188 isoform P01116-2 G12D): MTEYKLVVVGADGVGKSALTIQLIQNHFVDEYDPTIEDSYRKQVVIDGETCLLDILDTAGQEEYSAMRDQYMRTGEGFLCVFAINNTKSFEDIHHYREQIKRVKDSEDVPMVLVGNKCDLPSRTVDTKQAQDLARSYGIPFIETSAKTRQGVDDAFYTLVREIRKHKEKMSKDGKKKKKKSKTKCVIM
KRAS G12D, sequence (P01116 1-169 isoform P01116-2 G12D): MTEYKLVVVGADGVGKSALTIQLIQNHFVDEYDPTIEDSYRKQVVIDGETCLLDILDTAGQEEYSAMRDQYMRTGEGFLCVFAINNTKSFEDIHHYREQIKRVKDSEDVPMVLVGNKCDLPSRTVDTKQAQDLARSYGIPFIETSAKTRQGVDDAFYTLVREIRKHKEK
T1 sequence (P01116 1-169 isoform P01116-2): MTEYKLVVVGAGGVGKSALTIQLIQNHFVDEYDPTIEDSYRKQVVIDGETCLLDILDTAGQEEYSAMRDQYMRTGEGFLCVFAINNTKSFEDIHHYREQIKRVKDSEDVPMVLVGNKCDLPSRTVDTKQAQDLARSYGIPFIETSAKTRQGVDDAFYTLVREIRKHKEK

SMILES | pIC50 (KRAS (WT)) | pIC50 (KRAS G12D) | DC50 [1] [nM]
CC(C)[C@@H](C(=O)N1C[C@H](O)C[C@H]1C(=O)N[C@@H](C)c1ccc(-c2c(F)cccc2F)cc1)c1cc(N2CC3(CCN(CCOc4nc(N5CC6CCC(C5)N6)c5cc(Cl)c(-c6ccc(F)c7sc(N)c(C#N)c67)c(F)c5n4)CC3)C2)no1 [Example 70, (2S,4R)-1-((2R)-2-(3-(7-(2-((7-(2-amino-3-cyano-7-fluorobenzo[b]thiophen-4-yl)-4-(3,8-diazabicyclo[3.2.1]octan-3-yl)-6-chloro-8-fluoroquinazolin-2-yl)oxy)ethyl)-2,7-diazaspiro [3.5]nonan-2-yl)isoxazol-5-yl)-3-methylbutanoyl)-N-((S)-1-(2′,6′-difluoro-[1,1′-biphenyl]-4-yl)ethyl)-4-hydroxypyrrolidine-2-carboxamide] | 5.26 | 7.54 | 501
CC(C)[C@@H](C(=O)N1C[C@H](O)C[C@H]1C(=O)N[C@@H](C)c1ccc(-c2c(F)cccc2F)cc1)c1cc(N2CC3(CCN(CCOc4nc(N5CC6CCC(C5)N6)c5cc(C(F)(F)F)c(-c6ccc(F)c7sc(N)c(C#N)c67)c(F)c5n4)CC3)C2)no1 [Example 77, (2S,4R)-1-((2R)-2-(3-(7-(2-((7-(2-amino-3-cyano-7-fluorobenzo[b]thiophen-4-yl)-4-(3,8-diazabicyclo[3.2.1]octan-3-yl)-8-fluoro-6-(trifluoromethyl)quinazolin-2-yl)oxy)ethyl)-2,7-diazaspiro[3.5]nonan-2-yl)isoxazol-5-yl)-3-methylbutanoyl)-N-((S)-1-(2′,6′-difluoro-[1,1′-biphenyl]-4-yl)ethyl)-4-hydroxypyrrolidine-2-carboxamide] | 5.96 | 7.75 | 330
CC(C)[C@@H](C(=O)N1C[C@H](O)C[C@H]1C(=O)N[C@@H](C)c1ccc(-c2c(F)cc(F)cc2F)cc1)c1cc(OCC2CCN(CCOc3nc(N4CC5CCC(C4)N5)c4cc(Cl)c(-c5ccc(F)c6sc(N)c(C#N)c56)c(F)c4n3)CC2)no1 [Example 71, (2S,4R)-1-((2R)-2-(3-((1-(2-((7-(2-amino-3-cyano-7-fluorobenzo[b]thiophen-4-yl)-4-(3,8-diazabicyclo[3.2.1]octan-3-yl)-6-chloro-8-fluoroquinazolin-2-yl)oxy)ethyl)piperidin-4-yl)methoxy)isoxazol-5-yl)-3-methylbutanoyl)-4-hydroxy-N-((S)-1-(2′,4′,6′-trifluoro-[1,1′-biphenyl]-4-yl)ethyl)pyrrolidine-2-carboxamide] | < 5.00 | 7.55 | 582
C[C@H](NC(=O)[C@@H]1C[C@@H](O)CN1C(=O)[C@@H](NC(=O)CCOCCCN1CCC[C@H]1COc1nc(N2CC3CCC(C2)N3)c2cc(C(F)(F)F)c(-c3ccc(F)c4sc(N)c(C#N)c34)c(F)c2n1)C(C)(C)C)c1ccc(-c2cccc(F)c2F)cc1 [Example 94, (2S,4R)-1-((2S)-2-(3-(3-((2S)-2-((((7S)-7-(2-amino-3-cyano-7-fluorobenzo [b]thiophen-4-yl)-4-(3,8-diazabicyclo[3.2.1]octan-3-yl)-8-fluoro-6-(trifluoromethyl)quinazolin-2-yl)oxy)methyl)pyrrolidin-1-yl)propoxy)propanamido)-3,3-dimethylbutanoyl)-N—((S)-1-(2′,3′-difluoro-[1,1′-biphenyl]-4-yl)ethyl)-4-hydroxypyrrolidine-2-carboxamide] | 7.17 | 8.04 | 38
CC(C)[C@@H](C(=O)N1C[C@H](O)C[C@H]1C(=O)N[C@@H](C)c1ccc(-c2c(F)cccc2F)cc1)c1cc(OCC2(C)CCN(CCOc3nc(N4CC5CCC(C4)N5)c4cc(C(F)(F)F)c(-c5ccc(F)c6sc(N)c(C#N)c56)c(F)c4n3)CC2)no1 [Example 74, (2S,4R)-1-((2R)-2-(3-((1-(2-((7-(2-amino-3-cyano-7-fluorobenzo[b]thiophen-4-yl)-4-(3,8-diazabicyclo[3.2.1]octan-3-yl)-8-fluoro-6-(trifluoromethyl)quinazolin-2-yl)oxy)ethyl)-4-methylpiperidin-4-yl)methoxy)isoxazol-5-yl)-3-methylbutanoyl)-N-((S)-1-(2′,6′-difluoro-[1,1′-biphenyl]-4-yl)ethyl)-4-hydroxypyrrolidine-2-carboxamide] | 6.02 | 7.74 | 185
C[C@H](NC(=O)[C@@H]1C[C@@H](O)CN1C(=O)[C@@H](NC(=O)CCOCCCN1CCC[C@H]1COc1nc(N2CC3CCC(C2)N3)c2cc(C(F)(F)F)c(-c3ccc(F)c4sc(N)c(C#N)c34)c(F)c2n1)C(C)(C)C)c1ccc(-c2c(F)cc(F)cc2F)cc1 [Example 92, (2S,4R)-1-((2S)-2-(3-(3-((2S)-2-((((7S)-7-(2-amino-3-cyano-7-fluorobenzo[b]thiophen-4-yl)-4-(3,8-diazabicyclo[3.2.1]octan-3-yl)-8-fluoro-6-(trifluoromethyl)quinazolin-2-yl)oxy)methyl)pyrrolidin-1-yl)propoxy)propanamido)-3,3-dimethylbutanoyl)-4-hydroxy-N—((S)-1-(2′,4′,6′-trifluoro-[1,1′-biphenyl]-4-yl)ethyl)pyrrolidine-2-carboxamide] | 7.28 | 8.05 | 49
C#Cc1c(F)ccc2cc(O)cc(-c3ncc4c(N5CC6CCC(C5)N6)nc(OCCN5CCC(Oc6cc([C@H](C(=O)N7C[C@H](O)C[C@H]7C(=O)N[C@@H](C)c7ccc(-c8c(F)cccc8F)cc7)C(C)C)on6)CC5)nc4c3F)c12 [Example 100, (2S,4R)-1-((2R)-2-(3-((1-(2-((4-(3,8-diazabicyclo[3.2.1]octan-3-yl)-7-(8-ethynyl-7-fluoro-3-hydroxynaphthalen-1-yl)-8-fluoropyrido[4,3-d]pyrimidin-2-yl)oxy)ethyl)piperidin-4-yl)oxy)isoxazol-5-yl)-3-methylbutanoyl)-N—((S)-1-(2′,6′-difluoro-[1,1′-biphenyl]-4-yl)ethyl)-4-hydroxypyrrolidine-2-carboxamide] | 5.68 | 7.85 | 197
C[C@H](NC(=O)[C@@H]1C[C@@H](O)CN1C(=O)[C@@H](NC(=O)CCOCCCN1CCC[C@H]1COc1nc(N2CC3CCC(C2)N3)c2cc(C(F)(F)F)c(-c3ccc(F)c4sc(N)c(C#N)c34)c(F)c2n1)C(C)(C)C)c1ccc(-c2c(F)ccc(F)c2F)cc1 [Example 93, (2S,4R)-1-((2S)-2-(3-(3-((2S)-2-((((7S)-7-(2-amino-3-cyano-7-fluorobenzo [b]thiophen-4-yl)-4-(3,8-diazabicyclo [3.2.1]octan-3-yl)-8-fluoro-6-(trifluoromethyl)quinazolin-2-yl)oxy)methyl)pyrrolidin-1-yl)propoxy)propanamido)-3,3-dimethylbutanoyl)-4-hydroxy-N—((S)-1-(2′,3′,6′-trifluoro-[1,1′-biphenyl]-4-yl)ethyl)pyrrolidine-2-carboxamide] | 7.27 | 8.04 | 34
CC(C)[C@@H](C(=O)N1C[C@H](O)C[C@H]1C(=O)N[C@@H](C)c1ccc(-c2c(F)cccc2F)cc1)c1cc(OCC2CCN(CCOc3nc(N4CC5CCC(C4)N5)c4cc(C(F)(F)F)c(-c5ccc(F)c6sc(N)c(C#N)c56)c(F)c4n3)CC2)no1 [Example 18, (2S,4R)-1-((2R)-2-(3-((1-(2-((7-(2-amino-3-cyano-7-fluorobenzo[b]thiophen-4-yl)-4-(3,8-diazabicyclo[3.2.1]octan-3-yl)-8-fluoro-6-(trifluoromethyl)quinazolin-2-yl)oxy)ethyl)piperidin-4-yl)methoxy)isoxazol-5-yl)-3-methylbutanoyl)-N—((S)-1-(2′,6′-difluoro-[1,1′-biphenyl]-4-yl)ethyl)-4-hydroxypyrrolidine-2-carboxamide] | 5.50 | 7.60 | 247
C[C@H](NC(=O)[C@@H]1C[C@@H](O)CN1C(=O)[C@@H](NC(=O)CCOCCCN1CCC[C@H]1COc1nc(N2CC3CCC(C2)N3)c2cc(C(F)(F)F)c(-c3ccc(F)c4sc(N)c(C#N)c34)c(F)c2n1)C(C)(C)C)c1ccc(-c2ccccc2Cl)cc1 [Example 95, (2S,4R)-1-((2S)-2-(3-(3-((2S)-2-((((7S)-7-(2-amino-3-cyano-7-fluorobenzo [b]thiophen-4-yl)-4-(3,8-diazabicyclo [3.2.1]octan-3-yl)-8-fluoro-6-(trifluoromethyl)quinazolin-2-yl)oxy)methyl)pyrrolidin-1-yl)propoxy)propanamido)-3,3-dimethylbutanoyl)-N—((S)-1-(2′-chloro-[1,1′-biphenyl]-4-yl)ethyl)-4-hydroxypyrrolidine-2-carboxamide] | 7.19 | 8.07 | 43
